From paper PMC8592419 (PLoS ONE, 2021) come the findings set out here.

Structures are written as SMILES. Converted amounts (≈) assume the structure as drawn. Like-named read-outs stand apart in the source and are kept apart here. Where a SMILES comes first, the peptide text is derived from it.

The test system of data set [1] is M. abscessus clinical isolate MAB13. The data set can be described thus: In vitro susceptibility testing (DST), CLSI broth microdilution. In kind it is cell-based, M. abscessus subsp. massiliense. Further details: key to DST profile, interpretation, Day 3 / DST profile, interpretation, Day 5 / DST profile, interpretation, Day 14: S, susceptible; I, intermediate; R, resistant. The following applies: for MIC: Mycobacteroides abscessus. The procedure:
(§1) Drug susceptibility testing (DST) was performed according to the Clinical and Laboratory Standards Institute (CLSI) guidelines M24-A2 [42] using the broth microdilution method to determine the minimum inhibitory concentration (MIC). […] Colonies were grown at an adjusted cell density to a 0.5 McFarland standard and further diluted to 5×10^5 CFU/ml. […] These were then incubated at 37°C for 3, 5 and 14 days. The MIC was defined as the concentration in which no visible growth was observed. The results were interpreted according to the guidelines of CLSI. Inducible resistance was inferred by changes in MIC values from being susceptible at day 3 to resistant at day 14.
A general note: Broth dilution looks for growth in wells or tubes with falling amounts of substance.

Data set [2] relates to M. abscessus clinical isolate MAB12. Described as above. On the set-up: key to DST profile, interpretation, Day 3 / DST profile, interpretation, Day 5 / DST profile, interpretation, Day 14: S, susceptible; I, intermediate; R, resistant. Particulars: for MIC: Mycobacteroides abscessus. Format: cell-based, M. abscessus subsp. massiliense. On the procedure:
as §1

Data set [3] concerns M. abscessus clinical isolate MAB16. The data set is described as above. Format: cell-based, M. abscessus subsp. massiliense. Further details: key to DST profile, interpretation, Day 3 / DST profile, interpretation, Day 5 / DST profile, interpretation, Day 14: S, susceptible; I, intermediate; R, resistant. The following applies: for MIC: Mycobacteroides abscessus. On the procedure:
as §1

Data set [4] has as its system M. abscessus clinical isolate MAB14. Described as above. Format: cell-based, M. abscessus subsp. massiliense. Further details: key to DST profile, interpretation, Day 3 / DST profile, interpretation, Day 5 / DST profile, interpretation, Day 14: S, susceptible; I, intermediate; R, resistant. Particulars: for MIC: Mycobacteroides abscessus. The procedure: as §1
In data set [5] the test system is M. abscessus clinical isolate MAB15. The description is as above. In kind it is cell-based, M. abscessus subsp. massiliense. Further details: key to DST profile, interpretation, Day 3 / DST profile, interpretation, Day 5 / DST profile, interpretation, Day 14: S, susceptible; I, intermediate; R, resistant. The following applies: for MIC: Mycobacteroides abscessus. The procedure: as §1

The subject of data set [6] is human red blood cells (RBCs). The data set can be described thus: Hemolytic toxicity test. In kind it is cell-based. Particulars: for Hemolytic activities (%hemolysis): human RBCs, 1 h at 37°C, mean±SD of duplicates, two independent experiments. The procedure: For the hemolytic toxicity test, red blood cells (RBCs) from fresh blood samples of healthy volunteers were obtained by centrifugation at 1,000 rpm for 5 min. The cells were washed three times with sterile phosphate buffered saline (PBS) and adjusted into 1×10^8 cells/ml. AMPs were diluted with PPB in ranging from 6.25 to 400 μg/ml. Fifty microliters of the RBC suspensions and 50 μl of AMP solutions were added to 1.5 ml sterile microtubes, incubated for 1 h at 37°C and then centrifuged at 1,000 rpm for 5 min. The supernatants were transferred to new 96-well microtiter plates for measurement of the absorbance at 540 nm using a microplate reader. RBC suspensions treated with 2% (v/v) Triton X-100 and PBS solution were used as positive and negative controls. The percentages of hemolysis were calculated using the following formula: % of RBC lysis = 100 × [(Test—PBS) / (Positive control—PBS)]. All assays were performed in duplicate and two independent experiments.

Data set [7] relates to sixteen clinical Mab isolates. The data set can be described thus: 24-hour bactericidal activity assay, summary over isolates. The following applies: majority of the tested strains (10/16 isolates); equivalent of <50 μg/ml. In kind it is cell-based, Mycobacterium abscessus. The procedure:
(§2) Briefly, serial dilutions of the AMPs were prepared with potassium phosphate buffer (PPB) from the concentration range of 3.125 to 400 μg/ml and then 50 μl of each dilution were added to each 96-well plate. Colonies of the isolate were suspended and then further diluted in Mueller-Hinton broth to obtain a final concentration of 1×10^3 CFU/ml (optimized according to the available AMP stock concentration). Fifty microliters of this inoculum were added to each well of the plates. The plates were incubated for 3 days at 37°C. Plain media and bacterial suspensions without AMPs were used as negative and positive controls. The MIC values were read and recorded. All assays were performed in duplicate and two independent experiments.
Potential AMPs from the screening assays were subjected to determine the 24-hour bactericidal activity assays (corresponding to the common time of administration) with sixteen clinical Mab isolates using the protocol as described above. To observe the early antimicrobial activities, the plates were incubated for 24 h at 37°C. The samples from each well were further diluted in 0.05% Tween 80 and inoculated on Mueller-Hinton agar. After incubation for 3 days at 37°C, the colony-forming units (CFUs) were counted and calculated for the percentage of killing using the following formula: % killing = 1 - (CFU sample/ CFU control) ×100.

Data set [8] deals with M. abscessus clinical isolate MAB16. As to the kind of experiment: In vitro antimicrobial susceptibility of potential AMPs, broth microdilution, 3 days. In kind it is cell-based, M. abscessus subsp. massiliense. Particulars: 3 days at 37°C. On the procedure: as §2
(§3) For the in vitro antimicrobial susceptibility, the same protocol as described above was used. The culture plates were further incubated up to 3 days at 37°C. The MIC values were read and recorded.

Data set [9] relates to M. abscessus clinical isolate MAB15. The data set is described as above. Format: cell-based, M. abscessus subsp. massiliense. Particulars: 3 days at 37°C. The procedure: as §2, §3
Data set [10] has as its system M. abscessus clinical isolate MAB08. The data set is described as above. In kind it is cell-based, M. abscessus subsp. abscessus. Particulars: 3 days at 37°C. The procedure: as §2, §3
The test system of data set [11] is M. abscessus clinical isolate MAB04. The data set is described as above. Format: cell-based, M. abscessus subsp. abscessus. Particulars: 3 days at 37°C. The procedure: as §2, §3
The mark [12] stands for this setting: 72 h, day 3, read-out: DST profile, MIC value, Day 3.
Setting [13] is: 120 h, day 5, read-out: DST profile, MIC value, Day 5.
Where [14] appears, read: 336 h, day 14, read-out: DST profile, MIC value, Day 14.

As to `CC[C@H]1OC(=O)[C@H](C)[C@@H](O[C@H]2C[C@@](C)(OC)[C@@H](O)[C@H](C)O2)[C@H](C)[C@@H](O[C@@H]2O[C@H](C)C[C@H](N(C)C)[C@H]2O)[C@](C)(OC)C[C@@H](C)C(=O)[C@H](C)[C@@H](O)[C@]1(C)O` [CLA, Clarithromycin], the MIC was 8 µg/mL (≈ 10.7 µM) in [1] (setting [12]); 32 µg/mL (≈ 42.8 µM) in [1] (setting [13]); 32 µg/mL (≈ 42.8 µM) in data set [1] (setting [14]); 1020 µg/mL (≈ 1370 µM) in [2] (setting [12]); 1020 µg/mL (≈ 1370 µM) in data set [2] (setting [13]); 1020 µg/mL (≈ 1370 µM) in data set [2] (setting [14]). In addition, the MIC was determined as 0.2 µg/mL (≈ 0.267 µM) in [3] (setting [12]); 2 µg/mL (≈ 2.67 µM) in [3] (setting [13]); 2 µg/mL (≈ 2.67 µM) in data set [3] (setting [14]); 512 µg/mL (≈ 685 µM) in data set [4] (setting [12]); 512 µg/mL (≈ 685 µM) in data set [4] (setting [13]); 512 µg/mL (≈ 685 µM) in data set [4] (setting [14]). The MIC in data set [5] (setting [12]), in data set [5] (setting [13]) and in data set [5] (setting [14]) was 4 µg/mL (≈ 5.35 µM) each time. The “DST profile, interpretation, Day 3” value is recorded as “R” in data set [1] (day 3, CLSI interpretation); “R” in data set [2] (day 3, CLSI interpretation); “S” in data set [3] (day 3, CLSI interpretation); “R” in data set [4] (day 3, CLSI interpretation); “I” in data set [5] (day 3, CLSI interpretation). The “DST profile, interpretation, Day 5” value was “R” in data set [1] (day 5, CLSI interpretation); “R” in data set [2] (day 5, CLSI interpretation); “S” in data set [3] (day 5, CLSI interpretation); “R” in [4] (day 5, CLSI interpretation); “I” in [5] (day 5, CLSI interpretation). The “DST profile, interpretation, Day 14” value in data set [1] (day 14, CLSI interpretation) was “R”; in [2] (day 14, CLSI interpretation) it was “R”; in data set [3] (day 14, CLSI interpretation), “S”; in [4] (day 14, CLSI interpretation) it was “R”; in data set [5] (day 14, CLSI interpretation), “I”.
For the molecule `CC[C@H](C)[C@H](NC(=O)[C@H](CCCCN)NC(=O)[C@H](CCCNC(=N)N)NC(=O)CNC(=O)[C@H](CC(C)C)NC(=O)[C@H](CO)NC(=O)[C@H](CCCNC(=N)N)NC(=O)[C@H](CC(C)C)NC(=O)CNC(=O)CN)C(=O)N[C@@H](CC(C)C)C(=O)N[C@@H](CCCNC(=N)N)C(=O)N[C@@H](C)C(=O)N[C@@H](Cc1c[nH]c2ccccc12)C(=O)N[C@@H](CCCCN)C(=O)N[C@@H](CCCCN)C(=O)N[C@@H](Cc1ccc(O)cc1)C(=O)O` [S61] (H-GGLRSLGRKILRAWKKY-OH), the “Hemolytic activities (%hemolysis)” value in data set [6] (6.25 µg/mL) is listed as -0.18±0.75%; in data set [6] (12.5 µg/mL) it was 4.58±4.48%; in [6] (25 µg/mL), 6.34±4.98%; in data set [6] (50 µg/mL), 9.15±1.99%; in [6] (100 µg/mL), 10.74±0.75%; in data set [6] (200 µg/mL) it was 11.44±0.25%. In [6] (400 µg/mL), the “Hemolytic activities (%hemolysis)” value stood at 13.03±0.00%. Besides, the “MIC with ~99% killed within 24 h, in μM” value in [7] was “less than 24.97 μM”. For the same molecule, the “Antimicrobial peptides against M. abscessus isolates, MIC value” in [8], in [9], in data set [10] and in data set [11] was over 400 µg/mL in each case.
With `CC[C@H](C)[C@H](NC(=O)[C@H](CCCCN)NC(=O)[C@H](CCCNC(=N)N)NC(=O)CNC(=O)[C@H](CC(C)C)NC(=O)[C@H](CO)NC(=O)[C@H](CCCNC(=N)N)NC(=O)[C@H](CC(C)C)NC(=O)CNC(=O)CN)C(=O)N[C@@H](CC(C)C)C(=O)N[C@@H](CCCNC(=N)N)C(=O)N[C@@H](C)C(=O)N[C@@H](Cc1c[nH]c2ccccc12)C(=O)N[C@@H](CCCCN)C(=O)O` [S63] (H-GGLRSLGRKILRAWK-OH), the “Hemolytic activities (%hemolysis)” value in data set [6] (6.25 µg/mL) is reported as -0.53±0.75%; in data set [6] (12.5 µg/mL), 3.52±4.98%; in data set [6] (25 µg/mL), 5.81±3.73%; in data set [6] (50 µg/mL), 7.04±3.98%; in data set [6] (100 µg/mL), 8.27±3.73%; in data set [6] (200 µg/mL), 9.68±2.74%. Also, the “Hemolytic activities (%hemolysis)” value in [6] (400 µg/mL) is 10.56±1.99%. Besides, the “hemolysis at the MICs level” value in data set [6] (at the MICs level, single figure of the abstract) was determined as 1.50%. For the same molecule, the “MIC with ~99% killed within 24 h” value in data set [7] is under 29.22 µM. The “Antimicrobial peptides against M. abscessus isolates, MIC value” in data set [8], in [9], in data set [10] and in data set [11] was over 400 µg/mL in each case.

What is called MIC is the lowest concentration that inhibits growth of the organism.
